Measurements published in US10295463B2, “Device and method for investigating one or a plurality of phase objects” (Ludwig-Maximilians-Universität München, priority 2013, dated 2019).

Experiments:
bacteria = assay: Bacteria population growth and activity from intensity of a diffraction maximum, treatment with antibiotic; assay type: cell-based
Source text: In FIG. 16, it can be seen that the intensity of the diffraction maximum decreases with time for the bacteria sample. This decrease is due to an increasing division of the bacteria, i.e. a continuous increase in the bacteria population or, in other words, an increase in the number of phase objects which increasingly disturb the constructive interference in the diffraction maximum and thereby lead to a decrease in the intensity. In FIG. 16, it can be further observed that with increasing time, the intensity increasingly fluctuates, which can be attributed to the activity of the cells.
Further shown in FIG. 17 is an exemplary enlarged section of the course of the measurement signals, in which the fluctuations of the signal can be clearly seen. By fitting a growth curve, which includes the division rate as a parameter, the division rate of the bacteria can be discerned from the signal.
It can be seen from FIG. 18 that the standard deviation increases with time. This standard deviation represents fluctuations of the signals on a short time scale which in turn are a measure for the activity of the bacteria, which will be explained in more detail with reference to FIG. 19 below.

[1] = test system: Dictyostelium discoideum cell; assay: Cell motility by Fourier analysis of the temporal diffraction signal when an active substance is added; assay type: cell-based; settings: active substance added to the medium in the sample chamber at time t=0; FIG. 14
Source text: In FIG. 11b, a three-dimensional view is shown top left, a plan view is shown top right, and a cross section of the sample holder G is shown at the bottom. […] A surrounding medium or an active substance can be introduced into the receptacle, which is formed by the sample chamber. A sensor with a grid, which is arranged on a substrate, is located within the sample chamber. […] Furthermore, biological cells are located on the grid, where the reaction of the cells to the active substances is to be investigated. In particular, in the illustrated case is to be investigated how the motility of the cells changes due to the addition of the active substance.
In this case, the time axis runs from top to bottom and the frequency axis runs from left to right. At time t=0, the active substance, Latruncalin A, is added to the medium located in the sample chamber.

CC1(C)S[C@@H]2[C@H](NC(=O)[C@H](N)c3ccccc3)C(=O)N2[C@H]1C(=O)O [AMP]
normalized intensity of the diffraction maximum as a function of time (bacteria; 4 mg/l applied at 60 min., FIG. 19 row 3 column c): the intensity starts increasing again after 90 min.
mean value of the standard deviation of the intensity as a function of time (bacteria; 4 mg/l applied at 60 min., FIG. 19 row 3 column d): a rapid decrease in the standard deviation, which is even more pronounced than in the second row
normalized intensity of the diffraction maximum as a function of time (bacteria; double dose of 2 mg/1, FIG. 19 row 2 column c): the decrease in the normalized intensity flattens at 120 min.
mean value of the standard deviation of the intensity as a function of time (bacteria; double dose of 2 mg/1, FIG. 19 row 2 column d): at 120 min. the standard deviation decreases significantly, which is again indicative of cell death
normalized intensity of the diffraction maximum as a function of time (bacteria; treated after 60 min. of growth, concentration 1 mg/l, FIG. 19 row 1 column c): the normalized intensity decreases, which indicates a further growth of the bacteria population
mean value of the standard deviation of the intensity as a function of time (bacteria; treated after 60 min. of growth, concentration 1 mg/l, FIG. 19 row 1 column d): the standard deviation reaches a plateau at 120 min. and decreases thereafter, which suggests that the bacteria cells die

C/C1=C/C(=O)O[C@@H]2C[C@@H](CC[C@H](C)/C=C\C=C\CC1)O[C@@](O)([C@@H]1CSC(=O)N1)C2 [Latruncalin A, Latrunculin A]
temporal course of the Fourier coefficients [1]: a rise in the Fourier coefficients, which subside again with increasing exposure time
